Measured values: ChEMBL document CHEMBL1154494, “A highly sensitive fluorogenic probe for cytochrome P450 activity in live cells” (Bioorg Med Chem Lett, 2008)
The source made the active and inactive calls. The rule behind the calls is not given here.

B1: Cytochrome P450 1A1 (Homo sapiens) (protein)
chain: MLFPISMSATEFLLASVIFCLVFWVIRASRPQVPKGLKNPPGPWGWPLIGHMLTLGKNPHLALSRMSQQYGDVLQIRIGSTPVVVLSGLDTIRQALVRQGDDFKGRPDLYTFTLISNGQSMSFSPDSGPVWAARRRLAQNGLKSFSIASDPASSTSCYLEEHVSKEAEVLISTLQELMAGPGHFNPYRYVVVSVTNVICAICFGRRYDHNHQELLSLVNLNNNFGEVVGSGNPADFIPILRYLPNPSLNAFKDLNEKFYSFMQKMVKEHYKTFEKGHIRDITDSLIEHCQEKQLDENANVQLSDEKIINIVLDLFGAGFDTVTTAISWSLMYLVMNPRVQRKIQEELDTVIGRSRRPRLSDRSHLPYMEAFILETFRHSSFVPFTIPHSTTRDTSLKGFYIPKGRCVFVNQWQINHDQKLWVNPSEFLPERFLTPDGAIDKVLSEKVIIFGMGKRKCIGETIARWEVFLFLAILLQRVEFSVPLGVKVDMTPIYGLTMKHACCEHFQMQLRS

How the values were obtained:
A549 [1] = assay: Induction of CYP1A1 level in human A549 cells at 10 uM after 1 hr using Hoechst staining by fluorogenic assay in presence of CYP1A1 inducer TCDD; format: functional, cell-based
A549 [2] = assay: Induction of CYP1A1 level in human A549 cells at 10 uM after 1 hr using Hoechst staining by fluorogenic assay; format: functional, cell-based
A549 [3] = assay: Inhibition of CYP1A1 level in human A549 cells at 10 uM after 1 hr using Hoechst staining by fluorogenic assay in presence of CYP1A1 inducer TCDD and CYP1A1 inhibitior resveratrol; format: functional, cell-based
[4] = substrate: CCOc1cc(C)cc(C)c1C(C)(C)CC(=O)Nc1ccc2c(c1)Oc1cc(NC(=O)N3CCOCC3)ccc1C21Oc2ccccc2C1=O; assay: Activity of human CYP1A1 by fluorogenic assay; format: ADME

Row | Molecule | Activity (A549 [1]) | Activity (A549 [2]) | Activity (A549 [3]) | Km [4] [µM] | kcat/Km [4] [M⁻¹ s⁻¹]
1 | CCOc1cc(C)cc(C)c1C(C)(C)CC(=O)Nc1ccc2c(c1)Oc1cc(NC(=O)N3CCOCC3)ccc1C21OC(=O)c2ccccc21 (stereo not given) | Active | Active | Active | – | –
2 | B1 | – | – | – | 0.09 | 8800
